In patent US20230089368A1, “POLYAROMATIC UREA DERIVATIVES AND THEIR USE IN THE TREATMENT OF MUSCLE DISEASES” (ANAGENESIS BIOTECHNOLOGIES S.A.S., priority 2019, published 2023):

Assays:
[1] = system: muscle progenitors (hMP) from DMD hiPSC or WT hiPSC; experiment: Myotube assay: myogenic activity (total myotube area per well); type: cell-based, human; conditions: for Emax: Homo sapiens, 72 h, myotube assay, compounds incubated 3 days, read-out: MA (normalized Myotube Area, efficacy)
How it was run: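 DMD or WT hiPSC-derived muscle progenitors plated on collagen I in K5 medium with 5 μM Y-27632, treated with compound (1.5 nM–30 μM) for 3 days at 37° C. Cells were fixed, stained for alpha-actinin and imaged for total myotube area per well. EC50 and normalized myotube area (MA) taken from duplicate-averaged data.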

[2] = system: satellite-like cells (Pax7-positive cells) in hMP; experiment: Myotube assay: Pax7-positive (satellite-like) cell quantification; type: cell-based, human; set-up: key to Pax7% (pool of Pax7-positive cells) / Pax7: −: Depletes the pool of cells, while positively affects the myotubes; +: Maintains or increases the pool of cells, with at least 1 of the highest concentration known to be cytotoxic; ++: Maintains or increases the pool of cells, without any toxicity; conditions: for Pax7% (pool of Pax7-positive cells): myotube assay, compounds incubated 3 days
How it was run: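 DMD hiPSC-derived muscle progenitors (hMP) proliferated 4 days, then plated on collagen I in K5 medium with 5 μM Y-27632. Compound added at 1.5 nM–30 μM for 3 days at 37° C, then cells fixed and immunostained. Pax7-positive cells counted as percentage of total nuclei, duplicates averaged.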

SMILES	Emax [1] [%]	Pax7% (pool of Pax7-positive cells) [2]	total myotube surface/well (myogenic activity) ([1]; DMD hMP, 10 concentrations 1.5 nM to 30 μM, 3 days, FIG. 2)	percentage of Pax7-positive cells ([2]; DMD hMP, 10 concentrations 1.5 nM to 30 μM, 3 days, FIG. 3)
CSc1cc(Oc2ccnc3[nH]c(=O)cnc23)ccc1NC(=O)Nc1cc(C(C)(C)C)nn1-c1ccc(CN2CCOCC2)cc1 [(dd), 1-(3-(tert-butyl)-1-(4-(morpholinomethyl)phenyl)-1H-pyrazol-5-yl)-3-(2-(methylthio)-4-((3-oxo-3,4-dihydropyrido[2,3-b]pyrazin-8-yl)oxy)phenyl)urea]	≥ 75	+		
CCOC(=O)Nc1cc(Oc2ccc(NC(=O)Nc3cc(C(C)(C)C)no3)c(SC)c2)ccn1 [(de), Ethyl (4-(4-(3-(3-(tert-butyl)isoxazol-5-yl)ureido)-3-(methylthio)phenoxy)pyridin-2-yl)carbamate]	≥ 75	+		
CCOC(=O)Nc1cc(Oc2ccc(NC(=O)Nc3ncc(C(C)(C)C)s3)c(SC)c2)ccn1 [(df), Ethyl (4-(4-(3-(5-(tert-butyl)thiazol-2-yl)ureido)-3-(methylthio)phenoxy)pyridin-2-yl)carbamate]	≥ 75	+		
CC(C)(C)c1cc(NC(=O)Nc2ccc(Oc3ccnc4c3CCC(=O)N4)c3ccccc23)on1 [(dg), 1-(3-(tert-butyl)isoxazol-5-yl)-3-(4-((7-oxo-5,6,7,8-tetrahydro-1,8-naphthyridin-4-yl)oxy)naphthalen-1-yl)urea]	≥ 75	+		
CSc1cc(Oc2ccnc3[nH]c(=O)cnc23)ccc1NC(=O)Nc1cc(C(C)(C)C)on1 [(dh), 1-(5-(tert-butyl)isoxazol-3-yl)-3-(2-(methylthio)-4-((3-oxo-3,4-dihydropyrido[2,3-b]pyrazin-8-yl)oxy)phenyl)urea]	≥ 75	+		
CCOC(=O)Nc1cc(Oc2ccc(NC(=O)Nc3cc(C(C)(C)C)on3)c(SC)c2)ccn1 [(di), Ethyl (4-(4-(3-(5-(tert-butyl)isoxazol-3-yl)ureido)-3-(methylthio)phenoxy)pyridin-2-yl)carbamate]	≥ 75	++		
CC(=O)Nc1cc(Oc2ccc(NC(=O)Nc3cc(C(C)(C)C)nn3-c3ccccc3)c3ccccc23)ccn1 [(dj), N-(4-((4-(3-(3-(tert-butyl)-1-phenyl-1H-pyrazol-5-yl)ureido)naphthalen-1-yl)oxy)pyridin-2-yl)acetamide]	≥ 75	+		
CSc1cc(Oc2ccncc2)ccc1NC(=O)Nc1cc(C(C)(C)C)nn1-c1ccccc1 [(dk), 1-(3-(tert-butyl)-1-phenyl-1H-pyrazol-5-yl)-3-(2-(methylthio)-4-(pyridin-4-yloxy)phenyl)urea]	25 to 50	++		
CSc1cc(Oc2ccnc(NS(C)(=O)=O)c2)ccc1NC(=O)Nc1cc(C(C)(C)C)no1 [(dl), N-(4-(4-(3-(3-(tert-butyl)isoxazol-5-yl)ureido)-3-(methylthio)phenoxy)pyridin-2-yl)methanesulfonamide]	≥ 75	++		
CSc1cc(Oc2ccnc3[nH]c(=O)[nH]c23)ccc1NC(=O)Nc1cc(C(C)(C)C)nn1-c1ccccc1 [(dm), 1-(3-(tert-butyl)-1-phenyl-1H-pyrazol-5-yl)-3-(2-(methylthio)-4-((2-oxo-2,3-dihydro-1H-imidazo[4,5-b]pyridin-7-yl)oxy)phenyl)urea]	≥ 75	−		
CSc1cc(NC(=O)Nc2cc(C(C)(C)C)nn2-c2ccccc2)ccc1Oc1ccnc2[nH]c(=O)cnc12 [(dn), 1-(3-(tert-butyl)-1-phenyl-1H-pyrazol-5-yl)-3-(3-(methylthio)-4-((3-oxo-3,4-dihydropyrido[2,3-b]pyrazin-8-yl)oxy)phenyl)urea]	≥ 75	+		
CSc1cc(Oc2ccnc3[nH]c(=O)ccc23)ccc1NC(=O)Nc1cc(C(C)(C)C)nn1-c1ccccc1 [(do), 1-(3-(tert-butyl)-1-phenyl-1H-pyrazol-5-yl)-3-(2-(methylthio)-4-((7-oxo-7,8-dihydro-1,8-naphthyridin-4-yl)oxy)phenyl)urea]	≥ 75	+		
CSc1cc(Oc2ccnc3[nH]c(=O)cnc23)ccc1NC(=O)Nc1cc(C(C)(C)C)nn1-c1ccc(CN(C)C)cc1 [(dp), 1-(3-(tert-butyl)-1-(4-((dimethylamino)methyl)phenyl)-1H-pyrazol-5-yl)-3-(2-(methylthio)-4-((3-oxo-3,4-dihydropyrido[2,3-b]pyrazin-8-yl)oxy)phenyl)urea]	≥ 75	+		
CSc1cc(Oc2ccnc(NC(=O)CO)c2)ccc1NC(=O)Nc1cc(C(C)(C)C)nn1-c1ccccc1 [(dq), N-(4-(4-(3-(3-(tert-butyl)-1-phenyl-1H-pyrazol-5-yl)ureido)-3-(methylthio)phenoxy)pyridin-2-yl)-2-hydroxyacetamide]	≥ 75	+		
O=C(Nc1ccc(Oc2ccnc3[nH]c(=O)cnc23)cc1F)Nc1cc(C2CC2)nn1-c1ccccc1 [(e), 1-(3-cyclopropyl-1-phenyl-1H-pyrazol-5-yl)-3-(2-fluoro-4-((3-oxo-3,4-dihydropyrido[2,3-b]pyrazin-8-yl)oxy)phenyl)urea]	25 to 50	++		
CC1(c2cc(NC(=O)Nc3ccc(Oc4ccnc5[nH]c(=O)cnc45)cc3F)n(-c3ccccc3)n2)COC1 [(f), 1-(2-fluoro-4-((3-oxo-3,4-dihydropyrido[2,3-b]pyrazin-8-yl)oxy)phenyl)-3-(3-(3-methyloxetan-3-yl)-1-phenyl-1H-pyrazol-5-yl)urea]	50 to 75	++		
CC(C)Cc1cc(NC(=O)Nc2ccc(Oc3ccnc4[nH]c(=O)cnc34)cc2F)n(-c2ccccc2)n1 [(g), 1-(2-fluoro-4-((3-oxo-3,4-dihydropyrido[2,3-b]pyrazin-8-yl)oxy)phenyl)-3-(3-isobutyl-1-phenyl-1H-pyrazol-5-yl)urea]	≥ 75	+		
CC(C)(C)c1cc(NC(=O)Nc2ccc(Oc3ccnc4[nH]c(=O)cnc34)cc2F)[nH]n1 [(h), 1-(3-(tert-butyl)-1H-pyrazol-5-yl)-3-(2-fluoro-4-((3-oxo-3,4-dihydropyrido[2,3-b]pyrazin-8-yl)oxy)phenyl)urea]	25 to 50	+		
CC(C)n1nc(C(C)(C)C)cc1NC(=O)Nc1ccc(Oc2ccnc3[nH]c(=O)cnc23)cc1F [(i), 1-(3-(tert-butyl)-1-isopropyl-1H-pyrazol-5-yl)-3-(2-fluoro-4-((3-oxo-3,4-dihydropyrido[2,3-b]pyrazin-8-yl)oxy)phenyl)urea]	50 to 75	+	dose-dependent increase	dose-dependent increase
CC(C)(C)c1cc(NC(=O)Nc2ccc(Oc3ccnc4[nH]c(=O)cnc34)cc2F)n(Cc2ccccc2)n1 [(j), 1-(1-benzyl-3-(tert-butyl)-1H-pyrazol-5-yl)-3-(2-fluoro-4-((3-oxo-3,4-dihydropyrido[2,3-b]pyrazin-8-yl)oxy)phenyl)urea]	50 to 75	++		
CC(C)(C)c1cc(NC(=O)Nc2ccc(Oc3ccnc4[nH]c(=O)cnc34)cc2F)n(CCN2CCOCC2)n1 [(k), 1-(3-(tert-butyl)-1-(2-morpholinoethyl)-1H-pyrazol-5-yl)-3-(2-fluoro-4-((3-oxo-3,4-dihydropyrido[2,3-b]pyrazin-8-yl)oxy)phenyl)urea]	50 to 75	++		
CC(C)(C)c1cc(NC(=O)Nc2ccc(Oc3ccnc4[nH]c(=O)cnc34)cc2F)n(-c2cccnc2)n1 [(l), 1-(3-(tert-butyl)-1-(pyridin-3-yl)-1H-pyrazol-5-yl)-3-(2-fluoro-4-((3-oxo-3,4-dihydropyrido[2,3-b]pyrazin-8-yl)oxy)phenyl)urea]	50 to 75	+		
CC(C)(C)c1cc(NC(=O)Nc2ccc(Oc3ccnc4[nH]c(=O)cnc34)cc2F)n(-c2ncccn2)n1 [(m), 1-(3-(tert-butyl)-1-(pyrimidin-2-yl)-1H-pyrazol-5-yl)-3-(2-fluoro-4-((3-oxo-3,4-dihydropyrido[2,3-b]pyrazin-8-yl)oxy)phenyl)urea]	50 to 75	++		
CC(C)(C)c1cc(NC(=O)Nc2ccc(Oc3ccnc4[nH]c(=O)cnc34)cc2F)n(-c2ccc3ncccc3c2)n1 [(n), 1-(3-(tert-butyl)-1-(quinolin-6-yl)-1H-pyrazol-5-yl)-3-(2-fluoro-4-((3-oxo-3,4-dihydropyrido[2,3-b]pyrazin-8-yl)oxy)phenyl)urea]	≥ 75	+		
CC(=O)n1nc(C(C)(C)C)cc1NC(=O)Nc1ccc(Oc2ccnc3[nH]c(=O)cnc23)cc1F [(o), 1-(1-acetyl-3-(tert-butyl)-1H-pyrazol-5-yl)-3-(2-fluoro-4-((3-oxo-3,4-dihydropyrido[2,3-b]pyrazin-8-yl)oxy)phenyl)urea]	25 to 50	++		
CC(C)(C)c1nc(NC(=O)Nc2ccc(Oc3ccnc4[nH]c(=O)cnc34)cc2F)n(-c2ccccc2)n1 [(p), 1-(3-(tert-butyl)-1-phenyl-1H-1,2,4-triazol-5-yl)-3-(2-fluoro-4-((3-oxo-3,4-dihydropyrido[2,3-b]pyrazin-8-yl)oxy)phenyl)urea]	25 to 50	++		
